Results on one compound are retold here after patent publication US20200345746A1, “Oxazine Derivative for Use in the Prevention of Alzheimer's Disease in at Risk Patents” (Novartis AG, priority 2016, published 2020).

A short description of data set [1]: Drug-drug interaction study: PK of Compound 1 with the strong CYP3A4 inhibitor itraconazole. The data set is classed as in vivo, human. The settings on record: healthy volunteers, with itraconazole 200 mg q.d. vs Compound 1 alone.
Data set [2] can be described thus: off-target binding or activity.
In data set [3] the test system is Aβ38. Kind of data set: 3-month dose-ranging study: Aβ38 in CSF. Format: in vivo, human. From the text: This study is listed in ClinicalTrials.gov under the NCT02576639 Identifier code.
The primary purpose of this study was to expand on previous safety and tolerability data obtained over 2-week and 4-week duration in the first in human study and thereby allow initiation of future long-term efficacy trials in subjects at risk of AD. In addition, data relevant for Pharmacokinetic/Pharmacodynamic modeling was obtained in order to support dose selection decisions for future efficacy studies.

As for `C[C@@]1(c2nc(NC(=O)c3ncc(C(F)(F)F)cc3Cl)ccc2F)CO[C@@](C)(C(F)(F)F)C(N)=N1` [Compound 1, N-(6-((3R,6R)-5-amino-3,6-dimethyl-6-(trifluoromethyl)-3,6-dihydro-2H-1,4-oxazin-3-yl)-5-fluoropyridin-2-yl)-3-chloro-5-(trifluoromethyl)picolinamide], in data set [1], the “increase of mean AUC of Compound 1” value was 2-3 fold. Moreover, the “increase of mean Cmax of Compound 1” value in data set [1] came out at 25%. For the same compound, the “off-target binding or activity” value in data set [2] is listed as “no relevant off-target binding or activity”. Moreover, the “Aβ38 in CSF percent change from baseline, Difference (90% CI) Cmpd 1-Placebo” value is −18.17 (−21.49, −14.85) % in data set [3] (month 3, 2 mg QD); −60.18 (−63.54, −56.83) % in data set [3] (month 3, 10 mg QD); −80.55 (−83.83, −77.27) % in data set [3] (month 3, 35 mg QD); −86.81 (−90.22, −83.41) % in data set [3] (month 3, 85 mg QD). The “Aβ38 in CSF percent change from baseline, LSmean (SE)” value in data set [3] (month 3, 2 mg QD) is −20.58 (1.397) %; in data set [3] (month 3, 10 mg QD) it was −62.60 (1.430) %; in data set [3] (month 3, 35 mg QD) it was −82.96 (1.366) %; in data set [3] (month 3, 85 mg QD) it was −89.23 (1.470) %.
